The format of assay [1] is in vivo, mice (male CF-1).
A short description of assay [2]: Physical trauma (head injury) model, grip score 18 hours post-injury. It is filed as in vivo, mice (male CF-1). The source says:
Two tests which can be readily performed are observation of grip score and observation of grip time in injured test animals. Another test for agonist activity is for decrease in mortality caused by the CNS injury. Mice can be treated to simulate CNS injury by a variety of methods: they can be deprived of oxygen by administration of KCN (Nauquier, A., et al., Arch. Int. Pharmacodyn., 249:330 (1981)) or by temporary tying-off of the carotid artery (Braughler, J. M. and Lainer, M. J., "The effects of large doses of methylprednisolone on neurologic recovery and survival in the Mongolian gerbil following three hours of unilateral carotid occlusion," CNS Trauma, 3:153-162 (1986)). Alternatively, blows can be administered to the head or the spinal cord of the test animal.
The following protocol was used:
The compound to be tested was weighed and suspended in a polyethylated castor oil solution ("Cremophore") (21% Cremaphore, 3% ethanol in 0.9% saline). The concentration of the solution was then adjusted for administration at a dose of 0.01 cc/gm body weight. For example, for a dose of 10 mg/Kg, the solution was made 1.0 mg/cc, and a 23 g mouse would receive 0.23 cc of this solution. The solution was sonicated for approximately 90 minutes, or until the compound is dissolved.
Male CF-1 mice (15-25 gm) were weighed and marked for identification purposes. Each individual mouse was restrained by grasping the dorsal skin of the neck until the mouse was still. An impounder was used to administer the trauma. The impounder consists of a weight suspended over the animal's head at a height sufficient to produce significant injury when dropped, and a means for immobilizing the animal (in this case, room to hold the animal in place). […] 62:882-887, 883. The mouse was positioned properly under the impounder, and the weight was released from its preset height (11 CM).
Immediately following injury, the mouse was placed under a heat lamp. At various times after injury, the drug was administered intravenously at the specified dose. The time of injury and the time of injection were recorded.
B) Measurement of Grip Score
Each mouse was evaluated 18 hours post-injury for neurological deficit. The delay of 18 hours provided time for any sedative effects of the compound to wear off. It also provided time for healing to occur. Mortality was also noted. A standard grip test, as described in Hall et al., J. Neurosurg. 68:456-461 (1988), was used. The apparatus consisted of a taut string suspended between two uprights, 60 cm in length and 40 cm above a padded table.
Each mouse was picked up by the tail and placed on the string. […] The tail was then released. Grip score was recorded based on the mouse's performance while on the string. The following criteria were used (taken from Hall, E. D., J. Neurosurg. 62:882-887 (1985)):
C) Statistical Analysis Results of the above test were analyzed for statistical significance using the Mann-Whitney U test. See R. V. Tallarida & R. B. Murray, MANUAL OF PHARMACOLOGIC CALCULATIONS WITH COMPUTER PROGRAMS, Springer-Verlag, N.Y., pp. 57-59 (1981). This test was used to compare each set of grip scores for a particular dose of a particular compound against the grip scores for the control group.

The target in assay [3] is T1, peripheral-type BZ receptors (Rattus norvegicus, UniProt P16257).
T1 construct: displacement of ^3 H-RO5-4864 in brain homogenates; from tissue; host or cells: brain homogenates
Description: Competitive binding assay, displacement of 3H-Ro5-4864 in brain homogenates. The source says: Sprengel, R., et al., "Molecular cloning and expression of cDNA encoding a peripheral-type benzodiazepine receptor," J. Biol. Chem., 264:20415-20421 (1989).
Some of these compounds were further tested in in vivo studies.

The conditions of assay [4]: in vivo; cited from earlier work.

The structures appear in SMILES notation.

For the compound `CCC(C)N(C)C(=O)c1cc2ccccc2c(-c2ccccc2Cl)n1` (stereo not shown) [PK 11195, N-methyl-N-1-(1-methyl,propyl)(2-chlorophenyl)-3-isoquinoline carboxamide], in assay [1] (after KCN, increasing dose of compound, FIG. 10), the “percent survival (in words)” value is “increasing the dose of the compound increases the percent survival”. For the same compound, the “protection against KCN mortality (in words)” value in assay [1] (varied KCN dose, FIG. 11) is recorded as “protect against higher doses of KCN”. In addition, in assay [2] (0.1 mg/kg i.v., FIG. 1), the “grip score 18 hours post trauma (in words)” value is listed as “statistically significant increase in the grip score”. Further, the “neurological deficit score (grip score)” value is on record as 3.07 ± 0.47 in assay [2] (1 mg/kg i.v., 5 min post injury, control 2.06 ± 0.23, P<0.05); 3.53 ± 0.36 in assay [2] (1 mg/kg i.v., 30 min post injury, control 1.54 ± 0.43, P<0.004); 1.93 ± 0.42 in assay [2] (1 mg/kg i.v., 60 min post injury, control 2.54 ± 0.51); 2.89 ± 0.40 in assay [2] (10 mg/kg i.v., 5 min post injury, control 2.06 ± 0.23, P<0.05); 2.53 ± 0.40 in assay [2] (10 mg/kg i.v., 30 min post injury, control 1.56 ± 0.50); 2.62 ± 0.40 in assay [2] (10 mg/kg i.v., 60 min post injury, control 1.38 ± 0.60, P<0.03). Besides, in assay [2] (10 mg/kg, administered up to 1 hour post-injury), the “grip score versus controls (in words)” value is on record as “statistically significant increase in grip score”. In addition, in assay [2] (grip score 18 h post trauma, FIGS. 1-8), the “effectiveness in treatment of CNS trauma/damage (in words)” value is given as “effective”. Also, the “binding affinity to peripheral-type BZ sites (in words)” value in assay [3] is on record as “high degree of affinity”. Further, the “effect in cardiac ischemia” value in assay [4] is listed as “ineffective in treating cardiac ischemia”.

These data come from US5550124A, “Use of peripheral-type benzodiazpine sites for treatment of CNS trauma or disease” (priority 1991, dated 1996).
